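Method: 48-hour compound exposure of cells in 96-well plates, five concentrations, linear interpolation of endpoints. GI50 = concentration required for 50% inhibition of growth. TGI denotes the concentration required for complete inhibition of growth.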
Experiments:
Assay in all cases: NCI anticancer screen, dose series, 48 h
[1] = test system: KM12 colon
[2] = test system: HT29 colon
[3] = test system: K-562 leukemia
[4] = test system: RXF 393 renal
[5] = test system: OVCAR-3 ovarian
[6] = test system: MDA-MB-435
[7] = test system: MDA-N
[8] = test system: SK-MEL-28 melanoma
[9] = test system: SK-OV-3 ovarian
[10] = test system: MCF7 breast

SMILES	TGI [1]	TGI [2]	TGI [3]	TGI [4]	TGI [5]	TGI [6]	TGI [7]	TGI [8]	TGI [9]	TGI [10]	GI50 [2]	GI50 [3]	GI50 [4]	GI50 [5]	GI50 [8]	GI50 [1]	GI50 [10]	GI50 [6]	GI50 [9]
Nc1nc(SCCc2ccccc2)c2[nH]cnc2n1	> 100 µM	> 100 µM	> 100 µM	> 100 µM	> 100 µM	> 100 µM	> 100 µM	> 100 µM											
Cc1n[nH]c(=O)n1/N=C/c1ccc(Cl)cc1	> 100 µM		> 100 µM	72.3 µM	> 100 µM	> 100 µM	> 100 µM	> 100 µM	> 100 µM										
CCOC(=O)c1csc(NC(=O)CN2CCOCC2)n1	> 100 µM	> 100 µM	> 100 µM	> 100 µM	> 100 µM	> 100 µM	> 100 µM	> 100 µM	> 100 µM	> 100 µM									
CC1(C)OC(=O)N(c2ccccc2)C12C=Cc1cc([N+](=O)[O-])cc([N+](=O)[O-])c1O2 (centres undefined)	> 100 µM	> 100 µM	> 100 µM	> 100 µM	> 100 µM	> 100 µM	> 100 µM	> 100 µM	> 100 µM	> 100 µM									
O=c1[nH]c(Nc2cccc(CC(F)(F)F)c2)nc2nc[nH]c12	> 100 µM	> 100 µM			> 100 µM	> 100 µM	> 100 µM	> 100 µM	> 100 µM	> 100 µM									
CC(=O)NC(Cc1ccc(O)cc1)C(=O)O (centres undefined)	> 100 µM	> 100 µM	> 100 µM	> 100 µM	> 100 µM	> 100 µM	> 100 µM	> 100 µM	> 100 µM	> 100 µM									
Cc1ccc(-c2n[nH]c(=O)n2N2C(=O)c3ccccc3C2=O)cc1	> 100 µM	> 100 µM	> 100 µM	> 100 µM	> 100 µM	> 100 µM	> 100 µM	> 100 µM		> 100 µM									
COc1cc2c(c(OC)c1OC)C(=O)[C@@H]1[C@H]2N1C(N)=O	> 100 µM	> 100 µM	> 100 µM	> 100 µM	> 100 µM	> 100 µM	> 100 µM	> 100 µM		> 100 µM									
Cc1ccc(N=NC(=Nc2ccccc2)c2ccc(N(CCC#N)CCC#N)cc2)cc1	> 100 µM	> 100 µM	> 100 µM	80.1 µM	75.1 µM	> 100 µM	> 100 µM	> 100 µM	> 100 µM	79.2 µM									
CC(C)(C)OC(=O)N[C@H]1CCN(C2CCCCC2)C1=O			> 100 µM			> 100 µM	> 100 µM	> 100 µM	> 100 µM	> 100 µM									
O=[N+]([O-])c1ccc2c(c1)/C(=N/N=C1c3ccccc3Cc3ccccc31)c1cc([N+](=O)[O-])cc([N+](=O)[O-])c1-2	6.34 µM	4.07 µM	9.41 µM	8.59 µM	3.11 µM	3.38 µM	9.38 µM	9.05 µM	27.3 µM	3.64 µM									
O=C1/C(=C/c2ccccc2)N=C2Sc3c(nc[nH]c3=O)N12	> 100 µM	> 100 µM	83.5 µM	> 100 µM	> 100 µM	> 100 µM		> 100 µM	> 100 µM	> 100 µM									
CCCCC#C[I+]c1ccccc1	27.7 µM	32 µM	40.3 µM	36.9 µM	30.7 µM			31.8 µM	30.4 µM										
C=C(C)C(=O)OC1C/C(CO)=C\C(O)C/C(C)=C/C2OC(=O)C(=C)C21 (centres undefined)	38.8 µM	34.1 µM	58.2 µM		59.4 µM			33.4 µM	> 100 µM										
O=C(CCN1CCCCC1)C(=Cc1ccccc1)C(=O)CCN1CCCCC1	> 100 µM	> 100 µM	> 55.2 µM	34.3 µM	> 100 µM			> 100 µM	> 100 µM	> 100 µM	76.3 µM	3460 nM	16.9 µM	> 100 µM	> 100 µM				
COc1cc(C2c3cc4c(cc3OC(N3CCOCC3)C2C)OCO4)ccc1O (centres undefined)	> 100 µM	> 100 µM	33 µM	27.6 µM	45.1 µM	> 26.3 µM	4.41 µM	> 100 µM		> 83 µM									
Cc1c(O)c(O)cc[n+]1C1OC(CO)C(O)C1O (centres undefined)	> 100 µM	> 100 µM	> 100 µM	> 100 µM				> 100 µM	> 100 µM										
O=c1c2cc([N+](=O)[O-])cnc2sn1-c1ccc([N+](=O)[O-])cc1	62.4 µM	55.8 µM			> 100 µM	> 100 µM	> 100 µM	> 100 µM	> 100 µM	> 100 µM									
O=c1ccc(-c2ccccc2)n[nH]1	> 100 µM	> 100 µM	> 100 µM	> 100 µM	> 100 µM	> 100 µM	> 100 µM	> 100 µM											
COc1ccc(N/N=C2\CCOc3ccc(C)cc3C2=O)cc1	> 100 µM	61.1 µM	> 100 µM		> 100 µM	15.4 µM	22.3 µM	> 100 µM	80.2 µM	> 100 µM									
Clc1ccccc1C(SCc1ccccc1)SCc1ccccc1	> 100 µM	> 100 µM	> 100 µM	> 100 µM	> 100 µM		> 100 µM	> 100 µM		> 100 µM									
O=C1c2ccccc2-c2c1c1ccccc1c(=O)n2CCNCCNCCNCCn1c2c(c3ccccc3c1=O)C(=O)c1ccccc1-2	3.22 µM				4.91 µM	4.7 µM				0.298 µM		253 nM		1.16 µM		669 nM	32.9 nM	993 nM	
CC(=O)OC1CC(OC2C(O)CC(OC3C(O)CC(OC4CCC5(C)C(CCC6C5CC(O)C5(C)C(C7=CC(=O)OC7)CCC65O)C4)OC3C)OC2C)OC(C)C1OC1OC(CO)C(O)C(O)C1O (centres undefined)	0.519 µM	0.252 µM	> 100 µM		0.15 µM	0.61 µM	0.526 µM	0.979 µM	0.333 µM	0.431 µM									
N#Cc1c(-c2ccccc2)/c(=C\Nc2cccc(C(F)(F)F)c2)c(=O)n2c1nc1ccccc12	53.4 µM			78.1 µM		> 100 µM	91.4 µM	> 100 µM	91.6 µM	> 100 µM									

SMILES	TGI [1]	TGI [2]	TGI [3]	TGI [4]	TGI [5]	TGI [6]	TGI [7]	TGI [8]	TGI [9]	TGI [10]	GI50 [2]	GI50 [3]	GI50 [4]	GI50 [5]	GI50 [8]	GI50 [1]	GI50 [10]	GI50 [6]	GI50 [9]
Nn1c(-c2ccccc2)nn(C(=O)c2ccccc2)c1=O	> 100 µM	> 100 µM	> 100 µM	> 100 µM	> 100 µM	> 100 µM	> 100 µM	> 100 µM		> 100 µM									
COC(=O)c1c(C)cccc1C1CN=NC12Cc1ccc(C)cc1C2=O (centres undefined)	> 100 µM	> 100 µM	> 100 µM	> 100 µM	> 100 µM	> 100 µM	> 100 µM	> 100 µM		> 100 µM									
CCOC(=O)c1cn2c(n1)sc1cccc(C)c12	> 100 µM			> 100 µM	> 100 µM		> 100 µM		> 100 µM	> 100 µM									
O=C1CCCSC(=O)N1Cc1ccccc1	> 100 µM	> 100 µM		> 100 µM	> 100 µM	> 100 µM	> 100 µM	> 100 µM	> 100 µM	> 100 µM									
c1csc(-c2ccc(-c3cccc4nsnc34)s2)c1	> 100 µM		> 100 µM	> 100 µM	> 100 µM	> 100 µM	> 100 µM	> 100 µM	> 100 µM	> 100 µM									
CCOC(=O)C(SCCO)C(C(=O)OCC)n1cnc2c(=O)[nH]c(NC(C)=O)nc21 (centres undefined)	> 100 µM	> 100 µM	> 100 µM		> 100 µM	> 100 µM	> 100 µM	> 100 µM	> 100 µM	> 100 µM									
O=C1/C(=C\c2ccccc2)C(NC2CCCCC2)c2ccccc21 (centres undefined)	15.9 µM		5.07 µM	2.93 µM	2.51 µM	3.18 µM	3.8 µM	6.06 µM	27 µM	2.67 µM									
C1CN(c2nc3c(nnc4nc(N5CCOCC5)sc43)s2)CCO1	> 100 µM	> 100 µM	> 100 µM	> 100 µM	> 100 µM	> 100 µM	> 100 µM	> 100 µM		> 100 µM									
Cc1ccc(C(=O)O)cc1S(=O)(=O)Nn1cnc2ccc(S(=O)(=O)Nc3ccccc3C(=O)O)cc2c1=O	> 100 µM	> 100 µM	> 100 µM		> 100 µM	> 100 µM	> 100 µM	> 100 µM	> 100 µM	> 100 µM									
c1ccc(N=c2sc3ccccc3nc2Nc2ccccc2)cc1	> 100 µM	> 100 µM	> 100 µM	> 100 µM		> 100 µM		> 100 µM	> 100 µM										
C[C@]12CCC(O)CC1=CC[C@@H]1[C@@H]2CC[C@]2(C)C(=O)[C@H](n3ccnc3)C[C@@H]12 (some centres undefined)	> 100 µM	> 100 µM	> 100 µM	> 100 µM	> 100 µM	> 100 µM	> 100 µM	> 100 µM		> 100 µM									
COCO[C@@H]1C[C@H]2C(=O)Nc3ccccc3C(=O)N2C1	> 100 µM	> 100 µM		41.7 µM		> 100 µM	> 100 µM	> 100 µM	> 100 µM	> 100 µM									
Nc1nc(Cl)cc(NCC2(CO)CC(=O)C2)n1	> 100 µM	> 100 µM	> 100 µM	> 100 µM	> 100 µM	> 100 µM		> 100 µM	> 100 µM	> 100 µM									
N#Cc1c(N2CCCC2)ncn(-c2ccccc2)c1=O	> 100 µM	> 100 µM	> 100 µM	> 100 µM	> 100 µM	> 100 µM	> 100 µM	> 100 µM	> 100 µM										
O=C1CSC(c2ccc(Cl)cc2)N1c1ccc(Oc2ccc(Cl)cc2)c(Cl)c1 (centres undefined)	29.4 µM	36.3 µM	> 100 µM		29 µM	39 µM	30.4 µM	35.4 µM	31.9 µM	44.1 µM									
CC(C)CCS(=O)(=O)OCCCCOS(=O)(=O)CCC(C)C	> 100 µM	> 100 µM	> 100 µM	> 100 µM	29.9 µM			> 100 µM	> 100 µM										
CC1CCC(n2c3cnccc3c3cnc(Nc4ccc5c(n4)CCN(C(=O)CO)C5)nc32)CC1 (centres undefined)	> 100 µM	> 100 µM			> 100 µM	> 100 µM			> 100 µM	> 100 µM	0.596 µM			> 100 µM		81.2 nM	127 nM	660 nM	> 100 µM
c1ccc(-c2nc(-c3ccccc3SSc3ccccc3-c3nc(-c4ccccc4)nn3-c3ccccc3)n(-c3ccccc3)n2)cc1	> 100 µM		> 100 µM	> 100 µM	> 100 µM	> 100 µM	> 100 µM	> 100 µM	> 100 µM	> 100 µM									
ClCCN1CCC2(CC1)SSC1(CCN(CCCl)CC1)S2	> 100 µM	> 100 µM	> 100 µM		63.3 µM	> 100 µM	> 100 µM	> 100 µM	98.7 µM	39.6 µM									
O=[N+]([O-])c1cccc(-c2csc(NNC3=NC/C(=C/c4ccc5c(c4)OCO5)S3)n2)c1	29.2 µM	65.4 µM	> 100 µM	47.4 µM	> 100 µM	> 100 µM	> 100 µM		79 µM	> 100 µM									
COC(CCC[N+](C)(C)C)CC[N+](C)(C)C (centres undefined)		> 100 µM	> 100 µM	> 100 µM	> 100 µM		> 100 µM	> 100 µM	> 100 µM	> 100 µM									
Cc1cn2c(/C=N/N=C(N)N)c(-c3cccc([N+](=O)[O-])c3)nc2s1	2.38 µM	1.86 µM		2.5 µM	2.51 µM	3.21 µM		2.55 µM		2.12 µM									
C#CCNC(CS)C(=O)O (centres undefined)	> 100 µM	> 100 µM	> 100 µM	> 100 µM	> 100 µM	> 100 µM		> 100 µM	> 100 µM										

From PubChem BioAssay (NCI)
